{
  "source": "the supplement of paper PMC11208160",
  "data": [
    {"experiment": "recombinant UMI read abundance after kanamycin selection (control-corrected) (log10(CPM+1)); higher = more efficient recombination; extreme values may be limits of the assay; sequences stand for … in AGTGCAGAGAAAATCGGCCAGTTTTCTCTGCCTGCAGTCCGCATGCCGTGGGACCCCTTGGGTTCTAACCTGTTGCCTAGATTTATGCAGCGGACTGCCTTTCTCCCAAAGTGATAAACCGG…AGGTTGGTTTCACT; site = the 11-nt donor", "outline": "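Pooled Escherichia coli screen of donor and donor-binding-loop pairs for the IS621 bridge recombinase. Each pair sits with a 12-nt UMI on a plasmid carrying a promoterless kanamycin gene. The library was co-electroporated with a target plasmid encoding a fixed target and T7-inducible recombinase, then plated with IPTG (0.07 mM) plus kanamycin, or unselected, each in two replicates. Recombinant UMIs were PCR-amplified across the donor–target junction and sequenced. Counts became CPM, averaged over replicates, scaled by control-derived factors and reported as log10(CPM+1).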", "values": [
      {"sequence": "GCCATATCATGGACCGGTTTTCCCGGTAATCCGTATTTGTC (site GCCATATCTGA)", "recombinant UMI read abundance (log10)": 1.87},
      {"sequence": "GCCATATCATGGACCGGTTTTCCCGGTAATCCGTATTTGTC (site TCCATATCTGA)", "recombinant UMI read abundance (log10)": 1.87},
      {"sequence": "GCCCACCCATGGACCGGTTTTCCCGGTAATCCGTATTTGAA (site GCCCACCCTTT)", "recombinant UMI read abundance (log10)": 0.362},
      {"sequence": "GCCCCTACATGGACCGGTTTTCCCGGTAATCCGTATTTGCC (site GCCCCTACTGG)", "recombinant UMI read abundance (log10)": 2.33},
      {"sequence": "GCCCGAACATGGACCGGTTTTCCCGGTAATCCGTATTTGTC (site GCCCGAACTGA)", "recombinant UMI read abundance (log10)": 1.98},
      {"sequence": "GCCGACTCATGGACCGGTTTTCCCGGTAATCCGTATTTGCG (site GCCGACTCTCG)", "recombinant UMI read abundance (log10)": 2.35},
      {"sequence": "GCCGAGCCATGGACCGGTTTTCCCGGTAATCCGTATTTGTA (site GCCGAGCCTTA)", "recombinant UMI read abundance (log10)": 0.381},
      {"sequence": "GCCGCACCATGGACCGGTTTTCCCGGTAATCCGTATTTGGA (site GCCGCACCTTC)", "recombinant UMI read abundance (log10)": 0.0196},
      {"sequence": "GCCGCGCCATGGACCGGTTTTCCCGGTAATCCGTATTTGGG (site GCCGCGCCTCC)", "recombinant UMI read abundance (log10)": 0.0148},
      {"sequence": "GCCGTCCCATGGACCGGTTTTCCCGGTAATCCGTATTTGCA (site GCCGTCCCTTG)", "recombinant UMI read abundance (log10)": 0.345},
      {"sequence": "GCCTACCCATGGACCGGTTTTCCCGGTAATCCGTATTTGAA (site GCCTACCCTTT)", "recombinant UMI read abundance (log10)": 0.0461},
      {"sequence": "GCCTAGACATGGACCGGTTTTCCCGGTAATCCGTATTTGGG (site ACCTAGACTCC)", "recombinant UMI read abundance (log10)": 0.186},
      {"sequence": "GCCTAGACATGGACCGGTTTTCCCGGTAATCCGTATTTGGG (site CCCTAGACTCC)", "recombinant UMI read abundance (log10)": 0.0341},
      {"sequence": "GCCTAGACATGGACCGGTTTTCCCGGTAATCCGTATTTGGG (site GCCTAGACTCC)", "recombinant UMI read abundance (log10)": 0.283},
      {"sequence": "GCCTAGACATGGACCGGTTTTCCCGGTAATCCGTATTTGGG (site TCCTAGACTCC)", "recombinant UMI read abundance (log10)": 0.0888},
      {"sequence": "GCCTAGCCATGGACCGGTTTTCCCGGTAATCCGTATTTGCC (site ACCTAGCCTGG)", "recombinant UMI read abundance (log10)": 0},
      {"sequence": "GCCTAGCCATGGACCGGTTTTCCCGGTAATCCGTATTTGCC (site CCCTAGCCTGG)", "recombinant UMI read abundance (log10)": 0},
      {"sequence": "GCCTAGCCATGGACCGGTTTTCCCGGTAATCCGTATTTGCC (site GCCTAGCCTGG)", "recombinant UMI read abundance (log10)": 0},
      {"sequence": "GCCTAGCCATGGACCGGTTTTCCCGGTAATCCGTATTTGCC (site TCCTAGCCTGG)", "recombinant UMI read abundance (log10)": 0},
      {"sequence": "GCCTCCCCATGGACCGGTTTTCCCGGTAATCCGTATTTGGA (site GCCTCCCCTTC)", "recombinant UMI read abundance (log10)": 0.0286},
      {"sequence": "GCCTGGACATGGACCGGTTTTCCCGGTAATCCGTATTTGGC (site GCCTGGACTGC)", "recombinant UMI read abundance (log10)": 0.0803},
      {"sequence": "GCCTTCACATGGACCGGTTTTCCCGGTAATCCGTATTTGTT (site GCCTTCACTAA)", "recombinant UMI read abundance (log10)": 0.931},
      {"sequence": "GCCTTCTCATGGACCGGTTTTCCCGGTAATCCGTATTTGGG (site ACCTTCTCTCC)", "recombinant UMI read abundance (log10)": 0.00678},
      {"sequence": "GCCTTCTCATGGACCGGTTTTCCCGGTAATCCGTATTTGGG (site CCCTTCTCTCC)", "recombinant UMI read abundance (log10)": 0.0122},
      {"sequence": "GCCTTCTCATGGACCGGTTTTCCCGGTAATCCGTATTTGGG (site GCCTTCTCTCC)", "recombinant UMI read abundance (log10)": 0.00741},
      {"sequence": "GCCTTCTCATGGACCGGTTTTCCCGGTAATCCGTATTTGGG (site TCCTTCTCTCC)", "recombinant UMI read abundance (log10)": 0.0193},
      {"sequence": "GCGAAACCATGGACCGGTTTTCCCGGTAATCCGTATTTGGG (site GCGAAACCTCC)", "recombinant UMI read abundance (log10)": 0},
      {"sequence": "GCGAAACCATGGACCGGTTTTCCCGGTAATCCGTATTTGGG (site GCGAACCCTCC)", "recombinant UMI read abundance (log10)": 0.0118},
      {"sequence": "GCGAAACCATGGACCGGTTTTCCCGGTAATCCGTATTTGGG (site GCGAAGCCTCC)", "recombinant UMI read abundance (log10)": 0.0136},
      {"sequence": "GCGAAACCATGGACCGGTTTTCCCGGTAATCCGTATTTGGG (site GCGAATCCTCC)", "recombinant UMI read abundance (log10)": 0},
      {"sequence": "GCGAAACCATGGACCGGTTTTCCCGGTAATCCGTATTTGTG (site GCGAAACCTCA)", "recombinant UMI read abundance (log10)": 0},
      {"sequence": "GCGAACCCATGGACCGGTTTTCCCGGTAATCCGTATTTGAA (site GCGAACCCTTT)", "recombinant UMI read abundance (log10)": 2.49},
      {"sequence": "GCGAACGCATGGACCGGTTTTCCCGGTAATCCGTATTTGCT (site GCGAACGCTAG)", "recombinant UMI read abundance (log10)": 2.26},
      {"sequence": "GCGAAGACATGGACCGGTTTTCCCGGTAATCCGTATTTGTT (site GCGAAGACTAA)", "recombinant UMI read abundance (log10)": 2.37},
      {"sequence": "GCGAAGCCATGGACCGGTTTTCCCGGTAATCCGTATTTGAG (site GCGAAGCCTCA)", "recombinant UMI read abundance (log10)": 0.0311},
      {"sequence": "GCGAAGCCATGGACCGGTTTTCCCGGTAATCCGTATTTGAG (site GCGAAGCCTCC)", "recombinant UMI read abundance (log10)": 0.0267},
      {"sequence": "GCGAAGCCATGGACCGGTTTTCCCGGTAATCCGTATTTGAG (site GCGAAGCCTCG)", "recombinant UMI read abundance (log10)": 0},
      {"sequence": "GCGAAGCCATGGACCGGTTTTCCCGGTAATCCGTATTTGAG (site GCGAAGCCTCT)", "recombinant UMI read abundance (log10)": 0.00807},
      {"sequence": "GCGAAGCCATGGACCGGTTTTCCCGGTAATCCGTATTTGGG (site ACGAAGCCTCC)", "recombinant UMI read abundance (log10)": 0.0189},
      {"sequence": "GCGAAGCCATGGACCGGTTTTCCCGGTAATCCGTATTTGGG (site CCGAAGCCTCC)", "recombinant UMI read abundance (log10)": 0.0227},
      {"sequence": "GCGAAGCCATGGACCGGTTTTCCCGGTAATCCGTATTTGGG (site GAGAAGCCTCC)", "recombinant UMI read abundance (log10)": 0.00349},
      {"sequence": "GCGAAGCCATGGACCGGTTTTCCCGGTAATCCGTATTTGGG (site GCAAAGCCTCC)", "recombinant UMI read abundance (log10)": 0.00547},
      {"sequence": "GCGAAGCCATGGACCGGTTTTCCCGGTAATCCGTATTTGGG (site GCCAAGCCTCC)", "recombinant UMI read abundance (log10)": 0},
      {"sequence": "GCGAAGCCATGGACCGGTTTTCCCGGTAATCCGTATTTGGG (site GCGAAACCTCC)", "recombinant UMI read abundance (log10)": 0},
      {"sequence": "GCGAAGCCATGGACCGGTTTTCCCGGTAATCCGTATTTGGG (site GCGAACCCTCC)", "recombinant UMI read abundance (log10)": 0},
      {"sequence": "GCGAAGCCATGGACCGGTTTTCCCGGTAATCCGTATTTGGG (site GCGAAGACTCC)", "recombinant UMI read abundance (log10)": 0.0597},
      {"sequence": "GCGAAGCCATGGACCGGTTTTCCCGGTAATCCGTATTTGGG (site GCGAAGCCTAC)", "recombinant UMI read abundance (log10)": 0},
      {"sequence": "GCGAAGCCATGGACCGGTTTTCCCGGTAATCCGTATTTGGG (site GCGAAGCCTCA)", "recombinant UMI read abundance (log10)": 0.00806},
      {"sequence": "GCGAAGCCATGGACCGGTTTTCCCGGTAATCCGTATTTGGG (site GCGAAGCCTCC)", "recombinant UMI read abundance (log10)": 0.00509},
      {"sequence": "GCGAAGCCATGGACCGGTTTTCCCGGTAATCCGTATTTGGG (site GCGAAGCCTCG)", "recombinant UMI read abundance (log10)": 0},
      {"sequence": "GCGAAGCCATGGACCGGTTTTCCCGGTAATCCGTATTTGGG (site GCGAAGCCTCT)", "recombinant UMI read abundance (log10)": 0.00749},
      {"sequence": "GCGAAGCCATGGACCGGTTTTCCCGGTAATCCGTATTTGGG (site GCGAAGCCTGC)", "recombinant UMI read abundance (log10)": 0},
      {"sequence": "GCGAAGCCATGGACCGGTTTTCCCGGTAATCCGTATTTGGG (site GCGAAGCCTTC)", "recombinant UMI read abundance (log10)": 0.0136},
      {"sequence": "GCGAAGCCATGGACCGGTTTTCCCGGTAATCCGTATTTGGG (site GCGAAGGCTCC)", "recombinant UMI read abundance (log10)": 0},
      {"sequence": "GCGAAGCCATGGACCGGTTTTCCCGGTAATCCGTATTTGGG (site GCGAAGTCTCC)", "recombinant UMI read abundance (log10)": 0.00693},
      {"sequence": "GCGAAGCCATGGACCGGTTTTCCCGGTAATCCGTATTTGGG (site GCGAATCCTCC)", "recombinant UMI read abundance (log10)": 0.0162},
      {"sequence": "GCGAAGCCATGGACCGGTTTTCCCGGTAATCCGTATTTGGG (site GCGACGCCTCC)", "recombinant UMI read abundance (log10)": 0.00657},
      {"sequence": "GCGAAGCCATGGACCGGTTTTCCCGGTAATCCGTATTTGGG (site GCGAGGCCTCC)", "recombinant UMI read abundance (log10)": 0.0307},
      {"sequence": "GCGAAGCCATGGACCGGTTTTCCCGGTAATCCGTATTTGGG (site GCGATGCCTCC)", "recombinant UMI read abundance (log10)": 0},
      {"sequence": "GCGAAGCCATGGACCGGTTTTCCCGGTAATCCGTATTTGGG (site GCGCAGCCTCC)", "recombinant UMI read abundance (log10)": 0.011},
      {"sequence": "GCGAAGCCATGGACCGGTTTTCCCGGTAATCCGTATTTGGG (site GCGGAGCCTCC)", "recombinant UMI read abundance (log10)": 0.0363},
      {"sequence": "GCGAAGCCATGGACCGGTTTTCCCGGTAATCCGTATTTGGG (site GCGTAGCCTCC)", "recombinant UMI read abundance (log10)": 0.0104},
      {"sequence": "GCGAAGCCATGGACCGGTTTTCCCGGTAATCCGTATTTGGG (site GCTAAGCCTCC)", "recombinant UMI read abundance (log10)": 0.0212},
      {"sequence": "GCGAAGCCATGGACCGGTTTTCCCGGTAATCCGTATTTGGG (site GGGAAGCCTCC)", "recombinant UMI read abundance (log10)": 0.0306},
      {"sequence": "GCGAAGCCATGGACCGGTTTTCCCGGTAATCCGTATTTGGG (site GTGAAGCCTCC)", "recombinant UMI read abundance (log10)": 0.0355},
      {"sequence": "GCGAAGCCATGGACCGGTTTTCCCGGTAATCCGTATTTGGG (site TCGAAGCCTCC)", "recombinant UMI read abundance (log10)": 0.0116},
      {"sequence": "GCGAATCCATGGACCGGTTTTCCCGGTAATCCGTATTTGGG (site GCGAAACCTCC)", "recombinant UMI read abundance (log10)": 0.0049},
      {"sequence": "GCGAATCCATGGACCGGTTTTCCCGGTAATCCGTATTTGGG (site GCGAACCCTCC)", "recombinant UMI read abundance (log10)": 0}
    ]}
  ]
}
